Where a name gives a salt, the structure may show the parent alone. Read-outs that look alike come from different tables or passages of the source.
Key:
[1] = target: T1, wild-type human topoisomerase II α (Homo sapiens, UniProt P11388); experiment: Topoisomerase II DNA strand passage assay (kDNA decatenation), wild-type enzyme; type: biochemical; conditions: for inhibition of DNA strand passage (decatenation) activity, in words: wild-type enzyme, FIG. 2-A and FIG. 5
T1 construct: made in house; host or cells: yeast (over-expressing yeast cells)
T1 sequence (P11388 whole entry): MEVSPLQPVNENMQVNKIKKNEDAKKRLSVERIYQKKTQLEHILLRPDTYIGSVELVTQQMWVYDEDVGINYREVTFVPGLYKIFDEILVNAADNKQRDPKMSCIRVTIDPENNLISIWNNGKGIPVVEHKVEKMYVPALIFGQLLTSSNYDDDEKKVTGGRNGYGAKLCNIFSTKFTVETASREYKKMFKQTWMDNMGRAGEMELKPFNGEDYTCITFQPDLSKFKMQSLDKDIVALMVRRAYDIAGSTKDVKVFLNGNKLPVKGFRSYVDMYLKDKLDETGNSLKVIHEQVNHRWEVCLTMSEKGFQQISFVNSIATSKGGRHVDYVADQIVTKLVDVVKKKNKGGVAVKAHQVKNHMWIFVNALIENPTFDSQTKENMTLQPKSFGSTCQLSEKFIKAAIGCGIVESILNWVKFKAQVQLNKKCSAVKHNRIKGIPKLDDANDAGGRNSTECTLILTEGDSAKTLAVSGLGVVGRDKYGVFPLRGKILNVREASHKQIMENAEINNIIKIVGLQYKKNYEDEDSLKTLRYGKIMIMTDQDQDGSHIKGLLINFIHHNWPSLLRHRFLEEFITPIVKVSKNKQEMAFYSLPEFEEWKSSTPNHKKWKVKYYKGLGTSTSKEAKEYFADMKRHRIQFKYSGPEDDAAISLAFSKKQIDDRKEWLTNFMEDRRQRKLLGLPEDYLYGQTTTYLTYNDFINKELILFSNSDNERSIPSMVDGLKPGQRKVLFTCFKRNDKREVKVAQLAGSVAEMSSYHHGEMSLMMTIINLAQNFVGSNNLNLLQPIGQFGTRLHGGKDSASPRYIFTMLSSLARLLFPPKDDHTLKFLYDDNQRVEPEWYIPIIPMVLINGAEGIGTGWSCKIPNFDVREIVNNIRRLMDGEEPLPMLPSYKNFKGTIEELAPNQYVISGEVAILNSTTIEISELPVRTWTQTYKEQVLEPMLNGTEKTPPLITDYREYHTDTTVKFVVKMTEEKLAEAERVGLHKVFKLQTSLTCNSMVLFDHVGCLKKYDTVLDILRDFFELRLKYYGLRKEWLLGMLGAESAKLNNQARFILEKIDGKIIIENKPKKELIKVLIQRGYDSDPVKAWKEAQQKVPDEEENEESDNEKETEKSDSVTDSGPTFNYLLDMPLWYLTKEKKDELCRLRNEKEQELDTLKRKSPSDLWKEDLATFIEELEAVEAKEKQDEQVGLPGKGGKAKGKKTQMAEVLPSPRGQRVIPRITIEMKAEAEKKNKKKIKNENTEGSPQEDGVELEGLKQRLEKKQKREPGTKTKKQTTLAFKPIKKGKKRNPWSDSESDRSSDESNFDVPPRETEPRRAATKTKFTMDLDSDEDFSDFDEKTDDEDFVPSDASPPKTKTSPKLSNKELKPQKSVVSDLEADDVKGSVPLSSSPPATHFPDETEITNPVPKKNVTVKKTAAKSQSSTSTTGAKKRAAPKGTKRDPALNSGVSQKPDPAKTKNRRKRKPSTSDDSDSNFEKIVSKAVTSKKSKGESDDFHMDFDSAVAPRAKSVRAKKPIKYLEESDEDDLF
Method: Topoisomerase II catalytic activity (DNA strand passage activity) was measured by using a filter-based kDNA decatenation assay as described in Jensen et al., 2002. Briefly, 200 ng ^3H labelled kDNA isolated from C. fasciculata was incubated with increasing concentrations of drug in 20 μL reaction buffer containing 10 mM TRIS-HCl pH 7.7, 50 mM NaCl, 50 mM KCl, 5 mM MgCl2, 1 mM EDTA, 15 μg/mL BSA and 1 mM ATP using two units of purified wild-type or Y165S mutant topoisomerase II α for 20 minutes at 37° C. (where one unit of activity is defined as the amount of enzyme required for complete decatenation in the absence of drug). After addition of 5× stop buffer (5% Sarkosyl, 0.0025% bromophenol blue, and 50% glycerol), unprocessed kDNA network and decatenated DNA mini-circles were separated by filtering, and the amount of unprocessed kDNA in each reaction was determined by scintillation counting.
FIG. 2 describes the results of studies of the inhibition of topoisomerase II DNA strand passage activity by increasing concentrations of NSC 35866. Inhibition of human topoisomerase II α DNA strand passage activity was assessed by decatenation of tritium-labelled Crithidia fasiculata kDNA using a filter-based assay to separate unprocessed kDNA network from decatenated mini-circles. […] Error bars represent SEM of three independent experiments in panel A and two independent experiments in panel B.
Inhibition of human topoisomerase II α DNA strand passage activity was determined by decatenation of tritium labelled Crithidia fasiculata kDNA as described for FIG. 2. Error bars represent SEM of 3 or 4 independent experiments.

human SCLC OC—NYH cells [2] = experiment: Clonogenic assay, antagonism of etoposide-induced cytotoxicity; type: cell-based
Method: Cells were then plated in 0.3% agar in 6 cm petri dishes with sheep red blood cells as feeder layer in triplicate, and were incubated under the same conditions as described above. Plates were counted after 3 weeks.
20 μM etoposide was then added, and the cells were incubated for one hour. Next, the drugs were washed out and the cells were plated and counted after three weeks as described herein.

topoisomerase II α = topoisomerase II α (Homo sapiens, UniProt P11388); experiment: Topoisomerase II ATPase assay (coupled, NADH oxidation); type: biochemical; design: made in house; host or cells: yeast (over-expressing yeast cells); conditions: for inhibition of ATPase activity in the presence of DTT, in words: 10 mM DTT in the reaction buffer
Sequence of topoisomerase II α (P11388 whole entry): as above
Method: The reaction was monitored spectrophotometrically at 340 nm using a Bio-Tek EL808 Ultra Micro plate Reader connected to a computer with KC4 Software installed (Bio-Tek Instruments, U.S.). The change in absorbance was related to ADP production using A340^1M=6220 cm^−1. […] The rate of ATP hydrolysis, V, was determined from the linear part of the curve.
The steady-state rate of ATP hydrolysis was determined using a coupled ATPase assay as described herein. […] Error bars represent SEM of two independent experiments each performed in duplicate.
The steady-state rate of ATP hydrolysis was determined as described in for FIG. 3 and as described herein. In this analysis, the rate of ATP hydrolysis in the absence of drug was set to one in all experiments. Error bars represent SEM of 2 or 3 independent experiments each preformed in duplicate.

[3] = target: T2, human topoisomerase II α-DNA covalent complexes (Homo sapiens, UniProt P11388); experiment: Topoisomerase II DNA cleavage assay (phenol-chloroform extraction, Δcpm); type: biochemical
T2 construct: made in house; host or cells: yeast (over-expressing yeast cells)
T2 sequence (P11388 whole entry, one chain of several): as the sequence (P11388 whole entry) above
Excerpt: In order to determine the ability of NSC 35866 to increase the level of topoisomerase II-DNA covalent complexes on DNA in vitro, a new and highly sensitive topoisomerase II DNA cleavage assay having a numeric readout was developed. […] The DNA substrate is a 950 bp linear ^3H-labelled DNA synthesized by PCR in the presence of ^3H-dATP. […] The DNA fragment was isolated from unincorporated dNTPs by ethanol precipitation at 0.3 M NaCl, followed by washing in 70% ethanol. The specific activity of the fragment was typically 10,000-20,000 cpm/μg. Before starting the assay, a drug dilution series comprising 10× the final drug concentration was made. Reaction mixtures containing 100 ng of the 950 bp linear ^3H-labelled DNA, 300 ng human topoisomerase II q, topoisomerase II cleavage buffer (10 mM TRIS-HCL pH 7.9, 50 mM NaCl, 50 mM KCl, 5 mM MgCl2, 1 mM EDTA, 15 μg/mL BSA and 1 mM Na2ATP), and increasing concentrations of drug in 50 μL reaction volumes were then incubated 10 minutes at 37° C. A “no topoisomerase II” sample and a “no drug” sample were always included as controls. Next, the cleavable complex was trapped by adding 5 μL 10% SDS. After vigorous vortexing, 45 uL TE buffer, pH=8.0, was added to obtain 100 μL per sample. 100 μL phenol:chloroform:isoamyl alcohol (25:24:1) equilibrated with TE buffer, pH=8.0, was then added, and the samples were vortexed vigorously for 30 seconds. Finally, the samples were centrifuged at 20,000 g for 2 minutes and 90 μL of the upper water phase was used for scintillation counting using 15 mL of Ultima gold scintillation fluid (Packard).
In order to establish whether NSC 35866 inhibits the DNA strand passage reaction of topoisomerase II by stabilising a covalent reaction intermediate, a new and highly sensitive topoisomerase II DNA cleavage assay having a numeric read-out was developed. This assay is based on the fact that after extraction with phenol-chloroform, protein-bound DNA is removed from the water phase, while naked DNA remains in the water phase. […] Consequently, in reactions containing topoisomerase II and linear DNA, the ability of compounds to remove DNA from the water phase after phenol-chloroform extraction should reflect their potency as topoisomerase II poisons. This assay was first validated by incubating 100 ng of a linear 950 bp PCR DNA fragment with 300 ng of purified human topoisomerase II α in the presence of increasing concentrations of the etoposide and m-AMSA. The DNA fragment was ^3H labelled by performing PCR in the presence of ^3H-dATP. In these experiments, a “no topoisomerase II” sample was always included to determine the level of radioactivity (DNA) retained in the water-phase when no enzyme is present. Within each experiment, the CPM values retained in the water phase in the topoisomerase II reactions were then subtracted from this background CPM value to give Δcpm. Consequently, the Δcpm values of samples with no drug added represent the background level of topoisomerase II-DNA covalent complexes present in the reaction mixture under the assay conditions, while the Δcpm levels in the presence of drugs represent the levels of poison-induced topoisomerase II-DNA covalent complexes.

human SCLC OC—NYH cells [4] = experiment: Alkaline elution assay (DNA breaks); type: cell-based; conditions: 3 μM
Method: Alkaline elution assay was performed as described in Kohn et al., 1976 with modifications as described in Sehested et al., 1998. Briefly, to assess the ability of NSC 35866 to protect against etoposide-induced DNA breaks, cells were incubated with increasing concentrations of NSC 35866 for 10 minutes, before 3 μM etoposide was added to the samples. The cells were then co-incubated with 3 μM etoposide along with the same concentrations of NSC 35866 for 60 minutes. Some samples contained no etoposide in order to assess whether NSC 35866 induced DNA breaks by itself. After incubation with drug, cells were lysed and the DNA fragments eluted. DNA in the experimental OC—NYH cells was metabolically labelled by ^14C-thymidine incorporation while DNA in the internal control L1210 cells was metabolically labelled by ^3H-thymidine incorporation.
FIG. 9 describes the results of studies of the ability of NSC 35866 to antagonise DNA breaks induced by etoposide in human SCLC OC—NYH cells in a dose dependent manner. Alkaline DNA elution was used to detect DNA fragmentation induced by 3 μM etoposide in the presence of increasing concentrations of NSC 35866 as described herein. H202 treated mouse leukemic L1210 cells were used as internal control for DNA fragmentation. The DNA of the experimental OC—NYH cells was ^14C-labelled while the DNA of the L1210 cells was 3H-labelled.

[5] = in the presence of DNA (DNA-stimulated), read-out: IC50, inhibition of ATPase activity
[6] = measured in the absence of DTT, read-out: IC50

S=c1[nH]c(=S)c2[nH]cnc2[nH]1 [2,6-dithiopurine]
inhibition of DNA strand passage (decatenation) activity, in words [1]: an effect between that of the two 6-substituted thiopurines
effect on the level of etoposide-induced cytotoxicity, in words (human SCLC OC—NYH cells [2]; concentrations up to 30 μM): no detectable effect
IC50 (topoisomerase II α; [5]): ~3 µM

Sc1ncc2nc[nH]c2n1 [2-thiopurine]
inhibition of DNA strand passage (decatenation) activity, in words [1]: virtually no effect
effect on the level of etoposide-induced cytotoxicity, in words (human SCLC OC—NYH cells [2]; concentrations up to 30 μM): no detectable effect
IC50 (topoisomerase II α; [5]): ~3 µM

Nc1nc(Cl)c2nc[nH]c2n1 [6-chloroguanine, reference compound]
inhibitory effect on ATPase reaction, in words (topoisomerase II α; concentration not given): no inhibitory effect

CSc1nc(N)nc2nc[nH]c12 [6-methylthioguanine]
inhibition of DNA strand passage (decatenation) activity, in words [1]: almost no inhibition of decatenation activity
effect on the level of etoposide-induced cytotoxicity, in words (human SCLC OC—NYH cells [2]; concentrations up to 500 μM): no detectable effect
inhibitory effect on ATPase reaction, in words (topoisomerase II α; concentration not given): capable of inhibiting topoisomerase II ATPase activity

Nc1nc2nc[nH]c2c(=S)[nH]1 [6-thioguanine, reference compound]
IC50 ([1]; FIG. 5, read-out: half-maximal inhibition of DNA strand passage activity): ~50 µM
IC50 (topoisomerase II α; [5]): ~30 µM

Sc1ncnc2nc[nH]c12 [6-thiopurine]
concentration at which maximal inhibition of DNA strand passage activity is reached ([1]; FIG. 5): > 1000 µM
effect on the level of etoposide-induced cytotoxicity, in words (human SCLC OC—NYH cells [2]; concentrations up to 300 μM): no detectable effect
IC50 (topoisomerase II α; [5]): ~100 µM

Nc1nc2c(ncn2Cc2ccccc2)c(=O)[nH]1 [9-benzylguanine, reference compound]
inhibitory effect on ATPase reaction, in words (topoisomerase II α; concentrations up to 300 μM): no inhibitory effect

Nc1nc(SCc2ccccc2)c2[nH]cnc2n1 [NSC15747]
IC50 (topoisomerase II α; [6]): 13.4 µM

CCCCCSc1nc(N)nc2[nH]cnc12 [NSC35862]
IC50 (topoisomerase II α; [6]): 85.4 µM

Nc1nc(SCc2ccc(F)cc2)c2nc[nH]c2n1 [NSC35865]
IC50 (topoisomerase II α; [6]): 53.6 µM

Nc1nc(SC/C=C/c2ccccc2)c2nc[nH]c2n1 [NSC36824]
IC50 (topoisomerase II α; [6]): 68.9 µM

CNc1ncnc(Sc2nc(N)nc3[nH]cnc23)c1[N+](=O)[O-] [NSC38732]
IC50 (topoisomerase II α; [6]): 34.1 µM

Nc1nc(SCCCc2ccccc2)c2nc[nH]c2n1 [NSC39328]
IC50 (topoisomerase II α; [6]): 151 µM

N#CCSc1nc(N)nc2[nH]cnc12 [NSC39331]
IC50 (topoisomerase II α; [6]): 19 µM

CCn1c(C)nc([N+](=O)[O-])c1Sc1nc(N)nc2[nH]cnc12 [NSC42375]
IC50 (topoisomerase II α; [6]): 7.87 µM

Cc1ccc(CSc2nc(N)nc3[nH]cnc23)cc1 [NSC46384]
IC50 (topoisomerase II α; [6]): 14.1 µM

CSc1nc(Cl)c(Br)c(Sc2nc(N)nc3[nH]cnc23)n1 [NSC52383]
IC50 (topoisomerase II α; [6]): 12.7 µM

CCSc1nc(N)c(Br)c(Sc2nc(N)nc3[nH]cnc23)n1 [NSC52388]
IC50 (topoisomerase II α; [6]): 36.4 µM

Cn1cnc([N+](=O)[O-])c1Sc1nc(N)nc2c1ncn2C1CC(O)C(CO)O1 (stereo not shown) [NSC172614]
IC50 (topoisomerase II α; [6]): 121 µM

CCOC(=O)c1cc([N+](=O)[O-])c(Sc2ncnc3[nH]cnc23)c([N+](=O)[O-])c1 [NSC244708]
IC50 (topoisomerase II α; [6]): 2.74 µM

Nc1nc(Sc2cc([N+](=O)[O-])c3nonc3c2)c2ncn(C3OC(CO)C(O)C3O)c2n1 (stereo not shown) [NSC348400]
IC50 (topoisomerase II α; [6]): 0.389 µM

Nc1nc(Sc2ccc([N+](=O)[O-])c3nonc23)c2[nH]cnc2n1 [NSC348401]
IC50 (topoisomerase II α; [6]): 0.372 µM

O=[N+]([O-])c1ccc(Sc2ncnc3[nH]cnc23)c2nonc12 [NSC348402]
IC50 (topoisomerase II α; [6]): 0.777 µM

CC(=O)OCSc1ncnc2c1ncn2CN1CCOCC1 [NSC647471]
IC50 (topoisomerase II α; [6]): 119 µM

Nc1nc(OCC2CCCCC2)c2nc[nH]c2n1 [NU 2058, O^6-cyclohexylmethylguanine]
inhibition of ATPase activity in the presence of DTT, in words (topoisomerase II α): could inhibit ATPase activity
IC50 (topoisomerase II α; [5]): 300 µM

Nc1nc(OCc2ccccc2)c2nc[nH]c2n1 [O^6-benzylguanine]
inhibition of ATPase activity in the presence of DTT, in words (topoisomerase II α): could inhibit ATPase activity
IC50 (topoisomerase II α; [5]): 1000 µM

COc1nc(N)nc2nc[nH]c12 [O^6-methylguanine, reference compound]
inhibitory effect on ATPase reaction, in words (topoisomerase II α; concentrations up to 300 μM): no detectable inhibitory effect

Nc1nc2c(ncn2COCCO)c(=O)[nH]1 [acyclovir, 9-[(2-hydroxyethoxy)methyl]guanine, reference compound]
inhibitory effect on ATPase reaction, in words (topoisomerase II α; concentrations up to 300 μM): no inhibitory effect

Cn1cnc([N+](=O)[O-])c1Sc1ncnc2nc[nH]c12 [azathioprine, 6-(1-methyl-4-nitroimidazol-5-yl)thiopurine, reference compound]
effect on the level of etoposide-induced cytotoxicity, in words (human SCLC OC—NYH cells [2]; concentrations up to 500 μM): no detectable effect
inhibitory effect on ATPase reaction, in words (topoisomerase II α; concentration not given): capable of inhibiting topoisomerase II ATPase activity

COc1cc([C@@H]2c3cc4c(cc3[C@@H](O[C@@H]3O[C@@H]5CO[C@@H](C)O[C@H]5[C@H](O)[C@H]3O)[C@H]3COC(=O)[C@H]23)OCO4)cc(OC)c1O [etoposide, 4′-demethylepipodophyllotoxin 9-(4,6-O-ethylidene-b-D-glucopyranoside)]
effect on Δcpm with increasing concentrations, in words ([3]; ATP omitted from the reaction): no detectable increase in Δcpm
increase of the level of covalent complex formation, factor ([3]; etoposide up to 40 μM, with ATP): 6
effect on Δcpm with increasing concentrations, in words ([3]; with ATP, FIG. 6): increase Δcpm in a dose-dependent manner
DNA fragmentation by the drug alone, in words (human SCLC OC—NYH cells [4]): extensive fragmentation of DNA

COc1cc(NS(C)(=O)=O)ccc1Nc1c2ccccc2nc2ccccc12 [m-AMSA, methanesulfone-m-anisidine-4′-[(9-acridinyl)amino] hydrochloride]
effect on Δcpm with increasing concentrations, in words ([3]; with ATP, FIG. 6): increase Δcpm in a dose-dependent manner
